Values quoted from earlier work in patent US9662315B2, “Ameliorating drug-induced elevations in blood pressure by adjunctive use of antihypertensive drugs” (Kitov Pharmaceuticals Ltd., priority 2008, dated 2017).

Conditions: per FDA approved drug labeling; rofecoxib compared with placebo control patients

Row | SMILES | high blood pressure / hypertension rate in treated patients
1 | Cc1ccc(-c2cc(C(F)(F)F)nn2-c2ccc(S(N)(=O)=O)cc2)cc1 [celecoxib] | increased rate of hypertension
2 | CS(=O)(=O)c1ccc(C2=C(c3ccccc3)C(=O)OC2)cc1 [rofecoxib] | occurring more frequently
